Results reported in patent publication US4870183A, “Novel amino acid derivatives” (priority 1986, dated 1989).

What was measured:
human renin = molecular target: T1, human renin (Homo sapiens, UniProt P00797); assay: Inhibitory effect on human renin-sheep renin substrate reaction system in vitro; format: biochemical
T1 sequence (P00797 67-406): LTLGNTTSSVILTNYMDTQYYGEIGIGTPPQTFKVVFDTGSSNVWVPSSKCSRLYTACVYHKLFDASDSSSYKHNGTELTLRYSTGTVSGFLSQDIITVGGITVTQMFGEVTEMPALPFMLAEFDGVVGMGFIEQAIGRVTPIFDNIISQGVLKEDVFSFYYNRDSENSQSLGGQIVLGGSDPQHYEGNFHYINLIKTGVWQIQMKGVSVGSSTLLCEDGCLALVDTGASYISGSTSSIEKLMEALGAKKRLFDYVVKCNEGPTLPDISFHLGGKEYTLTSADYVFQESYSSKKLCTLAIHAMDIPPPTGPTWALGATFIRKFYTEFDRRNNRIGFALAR
Experimental: Inhibitory effect on human renin-sheep renin substrate reaction system in vitro
The mixture was incubated for 15 minutes on a water bath at 37° C., and the reaction mixture was allowed to stand for 5 minutes on a water bath at 100° C. to stop the reaction. After cooling, 200 μl of the solution was taken up and the amount of angiotensin I produced by the addition of renin was determined by radioimmunoassay using renin riabead kit (DAINABOT).
The inhibitory effect was calculated by the following equation.
As a control, the same procedure as above was carried out by using 50 μl of dimethyl sulfoxide alone in place of the 50 μl of dimethyl sulfoxide solution containing an amino acid compound of the present invention. [formula]

[1] = Hypotensive effect in marmoset (tail cuff blood pressure, high renin state); format: in vivo, common marmoset; details: 30 mg/kg oral, conscious high renin marmoset, control 99.7
Experimental: Hypotensive Effect in Marmoset
The experiment was carried out by using common marmoset as described in K. G. Hofbauer et al., Clinical and Experimental Hypertension, Vol. A5, Nos. 7 & 8 pages 1237-1247.
Furosemide was administered orally three times to common marmoset at 15 mg per kilogram per day every other day to create a high renin state. Blood pressure of conscious marmoset was measured on the third day after the last furosemide dose.
A conscious male marmoset weighing 340 g was placed into small restraining chair. Blood pressure was measured on the tail cuff method using pretismograph. Compound A of this invention was dissolved in dilute hydrochloric acid, and administered orally at 30 mg/kg by using a catheter.

[2] = molecular target: T2, renin in human high renin plasma (Homo sapiens, UniProt P00797); assay: Renin inhibitory effect in a human high renin plasma; format: biochemical
T2 construct: from tissue; host or cells: human high renin plasma
T2 sequence (P00797 67-406): T1 sequence (P00797 67-406)
Experimental: Renin Inhibitory Effect in a Human High Renin Plasma
Two hundred μl of the mixture was placed on an ice bath, at 4° C., and remaining mixture (800 μl) was incubated for 60 minutes at 37° C. on a water bath. Two hundred μl of the incubated remaining mixture was chilled immediately on an ice bath, and the amount (A) of angiotensin I produced was determined by radioimmunoassay using renin riabead kit (DAINABOT).
The amount (B) of angiotensin I in the mixture placed on an ice bath at 4° C. was also determined by radioimmunoassay.
As a control, the same procedure as above was carried out by using 100 μl of dimethyl sulfoxide alone in place of 100 μl of dimethyl sulfoxide solution containing an amino acid compound of the present invention.
The net amount was estimated as the difference between A and B.
The inhibitory effect was calculated by the following equation. [formula]

plasma renin activity = molecular target: T3, plasma renin activity (Callithrix jacchus, UniProt Q9TSZ1); assay: Renin inhibitory effect in plasma on common marmoset (plasma renin activity after oral dosing); format: in vivo; details: 30 mg/kg oral single dose, furosemide-treated conscious marmosets, control 43.16
T3 construct: from tissue; host or cells: plasma of furosemide-treated conscious male common marmosets
T3 sequence (Q9TSZ1 61-400): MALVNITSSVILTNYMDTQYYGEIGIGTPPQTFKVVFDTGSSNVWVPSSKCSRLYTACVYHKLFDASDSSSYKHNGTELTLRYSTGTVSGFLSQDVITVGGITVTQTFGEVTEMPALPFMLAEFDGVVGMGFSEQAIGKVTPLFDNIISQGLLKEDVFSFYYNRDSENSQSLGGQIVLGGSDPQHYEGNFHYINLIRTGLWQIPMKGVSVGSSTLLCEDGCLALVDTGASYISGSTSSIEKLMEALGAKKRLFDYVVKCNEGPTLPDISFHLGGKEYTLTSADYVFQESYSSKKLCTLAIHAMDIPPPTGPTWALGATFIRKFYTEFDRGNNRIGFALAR
Experimental: Renin Inhibitory Effect in Plasma on Common Marmoset
The experiment was carried out by using common marmoset as described in K. G. Hofbauer et al., CLINICAL AND EXPERIMENTAL HYPERTENSION, Vol. A5, Nos. 7 & 8 (1983), pages 1237-1247.
Furosemide was administered orally three times to common marmoset having a lower salt diet at 15 mg per kilogram per day every other day to create a high renin state. The experiment was carried out on the third day after the last furosemide dose.
Three conscious male marmosets weighing 310-460 g were placed into small restraining chair, and by using a catheter into the femoral artery, blood collecting was carried out at intervals of 60, 180 and 300 minutes.
Collected blood samples were centrifuged at 1200×g for 15 minutes at 4° C. Two hundred μl of the plasma was taken up and incubated for 60 minutes at 37° C., and the plasma renin activity was measured by radioimmunoassay using renin riabead kit (DAINABOT).
Compound A of this invention was dissolved in dilute hydrochloric acid, and administered orally at single dose of 30 mg/kg using catheter.

Work on `CC(C)OC(=O)C(O)[C@H](CC1CCCCC1)NC(=O)[C@H](Cc1c[nH]cn1)NC(=O)C(Cc1ccccc1F)Cc1ccccc1F` (mixture of isomers) [Compound A, (2RS, 3S)-3-{N-[Bis(2-fluorobenzyl)acetyl]-L-histidyl}amino-4-cyclohexyl-2-hydroxybutyric acid isopropyl ester] yielded an IC50 (human renin) of 9.4 nM, a Blood pressure ([1]; 0.5 hours after administration) of 94.7 mmHg and a Blood pressure ([1]; 1 hour after administration) of 86.2 mmHg. The Blood pressure ([1]; 2 hours after administration) was 89.7 mmHg, the Blood pressure ([1]; 3 hours after administration) was 86.2 mmHg and the Blood pressure ([1]; 5 hours after administration) was 85.7 mmHg. The IC50 [2] was 130 nM, the PRA (plasma renin activity; 60 minutes after administration) was 30.35 ng angiotensin I/ml/hr and the PRA (plasma renin activity; 180 minutes after administration) was 18.89 ng angiotensin I/ml/hr. It also gave a PRA (plasma renin activity; 300 minutes after administration) of 22.93 ng angiotensin I/ml/hr.
